Experimental data taken from ChEMBL document CHEMBL3596190, “Non-classical -carbonic anhydrase inhibitors-towards novel anti-mycobacterials” (Medchemcomm, 2014).
Converted amounts (≈) assume the structure as drawn. The source made the active and inactive calls. No cut-off for these calls is given here.

Legend:
[1] = system: Mycobacterium tuberculosis; test: Effect on quaternary structure of un-tagged Mycobacterium tuberculosis beta-carbonic anhydrase Rv3588c at pH 6.0 by size exclusion chromatography
[2] = system: Mycobacterium tuberculosis; test: Effect on quaternary structure of un-tagged Mycobacterium tuberculosis beta-carbonic anhydrase Rv3588c at pH 8.5 by size exclusion chromatography
BL21-AI [3] = test: Inhibition of His6-tagged Mycobacterium tuberculosis Rv3588c expressed in Escherichia coli BL21-AI cells assessed as increase in Hill coefficient at 25 uM by stopped flow CO2 hydration assay based Michaelis-Menten analysis
[4] = Inhibition of His6-tagged Mycobacterium tuberculosis Rv3588c expressed in Escherichia coli BL21-AI cells by stopped flow CO2 hydration assay based Michaelis-Menten analysis; assay type: cell-based
[5] = system: Mycobacterium tuberculosis; test: Growth inhibition of Mycobacterium tuberculosis H37Ra incubated for 7 days by resazurin dye based fluorescence assay; assay type: functional; details: 168 h
[6] = biological target: T1, Beta-carbonic anhydrase 1 (Mycobacterium tuberculosis) (UniProt P9WPJ7); test: Binding affinity to His6-tagged Mycobacterium tuberculosis Rv1284 expressed in Escherichia coli BL21-AI cells assessed as […] in melting temperature at 250 uM by SYPRO orange dye based differential scanning fluorimetry
T1 sequence (whole entry): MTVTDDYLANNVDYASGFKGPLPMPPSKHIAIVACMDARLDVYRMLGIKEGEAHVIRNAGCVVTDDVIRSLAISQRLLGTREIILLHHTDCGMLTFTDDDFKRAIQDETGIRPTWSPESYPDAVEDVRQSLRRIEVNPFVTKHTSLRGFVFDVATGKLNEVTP

BL21-AI [7] = details: Mycobacterium tuberculosis, at 25 µM
Description: Inhibition of His6-tagged Mycobacterium tuberculosis Rv3588c expressed in Escherichia coli BL21-AI cells assessed as reduction in Vmax at 25 uM by stopped flow CO2 hydration assay based Michaelis-Menten analysis

Structure (SMILES)	Activity [1]	Activity [2]	inhibition (BL21-AI [3])	Ki [4] [µM]	MIC90 [5] [µM]	deltaTm [6] [K]	inhibition (BL21-AI [7])
C=C1CC[C@@H](C/C=C(\C)CC/C=C(/CCC=C(C)C)C(=O)O)C(C)(C)[C@H]1CC/C(C)=C/C(=O)O	inactive	inactive	Active	10	> 50	5.4	Active
COc1c(Br)cc(/C=C/C(=O)NCCCNCCCCNCCCNC(=O)/C=C/c2cc(Br)c(OC)c(Br)c2)cc1Br [IANTHELLIFORMISAMINE C]	inactive	inactive	Active	16	12.5 (≈ 10.5 µg/mL)	1	Active
COc1c(Br)cc(C/C(=N\O)C(=O)NCCCC(=O)N(C)CCCCN(C)CCCNC(=O)/C(Cc2cc(Br)c(OC)c(Br)c2)=N/O)cc1Br [SPERMATINAMINE]	inactive	inactive	Active	23	6.3 (≈ 6.03 µg/mL)	1.2	
N#C[S-].[Na+] [THIOCYANATE SODIUM]				8			Active
